Laboratory results taken from patent publication US20220378923A1, “BET DEGRADER” (KYOWA KIRIN CO., LTD., priority 2019, published 2022).
Counter-ions that a name gives are not always drawn.

Test system: MYC mRNA expression in SU-DHL-4 cells
Assay: Suppressive effect on MYC mRNA expression (Test Example 2)
Assay type: cell-based, human
Settings: Homo sapiens, test compound 100 nmol/L, 6 hours, qRT-PCR corrected by ACTB, GAPDH, HPRT1, read-out: Suppression Rate of MYC mRNA Expression (%)
Description: The cells were passaged twice a week at a volume of 20-40 mL so as to maintain a cell concentration of 1×10^6 cells/mL or less. The cultured SU-DHL-4 cells were seeded at 6×10^5 cells/well in a transparent 6-well plate (Code No. 140675, Thermo Fisher Scientific). After seeding, the cells were precultured at 37° C. in a carbon dioxide gas incubator for 18 to 25 hours. […] At this time, the final concentration of DMSO was adjusted to be 0.1 vol %. After adding the test compound, the cells were cultured at 37° C. in a carbon dioxide gas incubator for 6 hours. Then, the cells were collected by centrifugation and used for extraction of mRNA. mRNA extraction from cells was performed using Maxwell® 16 LEV simplyRNA Purification Kits (Code No. AS1270, Promega). The mRNA recovery protocol was performed according to the manufacturer's recommended protocol attached to the kit. […] The cDNA conversion was performed, according to the manufacturer's recommended protocol attached to the kit, in 0.020 mL of the reaction solution, and GeneAmp® PCR System 9700 (Applied Biosystems) was used. The cDNA-converted sample was diluted 10-fold by adding 0.180 mL of RNase Free Water (Code No. 10977-023, Thermo Fisher Scientific) and used for quantitative real-time polymerase chain reaction (qRT-PCR). For the calibration curve of qRT-PCR, 0.08 mL of RNase Free Water was added to a cDNA sample using DMSO as a test compound for 5-fold dilution. Further, two 5-fold dilutions were prepared stepwise, and these three samples were used as the calibration curve samples. The following reagents were used for qRT-PCR: TaqMan Gene Expression Assays, Inventoried (Primer probe: Code No. 4331182, Thermo Fisher Scientific, Assay ID: (i) MYC: Hs00153408_m1, (ii) ACTB: Hs01060665_g1, (iii) GAPDH: Hs04420697_g1, (iv) HPRT1: […] Universal PCR Master Mix, no AmpEraseR UNG (Master Mix: Code No. 4367846, Thermo Fisher Scientific). Primer probe (0.001 mL), Master Mix (0.010 mL), water (0.004 mL) and the diluted cDNA sample (0.005 mL) were mixed, and qRT-PCR analysis was performed. For qRT-PCR analysis, QuantStudio 7 Flex (Thermo Fisher Scientific) or 7500 Fast Real-Time PCR (Applied Biosystems) was used to measure in Fast mode and analyze. […] Corrected MYC expression=A/B • A: MYC expression level • B: Geometric mean of expression levels of ACTB, GAPDH and HPRT1 Using the corrected values, the suppression rate of MYC expression for the wells to which the test compound was not added was calculated by the following formula. […] Corrected MYC expression level in a well containing test compound • D: Corrected MYC expression level in a well to which test compound was not added

SMILES | inhibition at 0.1 µM [%]
CCC(=O)N1c2ccccc2[C@H](Nc2ccc(NC(=O)[C@H](C)NC(=O)c3ccc(N[C@@H]4C[C@H](C)N(C(=O)CC)c5ccccc54)cc3)cc2)C[C@@H]1C (relative stereo) [Compound 2d, 4-{[(2S,4R)-2-Methyl-1-propionyl-1,2,3,4-tetrahydroquinolin-4-yl]amino}-N-{(S)-1-[(4-{[(2S*,4R*)-2-methyl-1-propionyl-1,2,3,4-tetrahydroquinolin-4-yl]amino}phenyl)amino]-1-oxopropan-2-yl}benzamide] | 80

Test system: SU-DHL-4 cells
Assay: Inhibitory effect on cell viability in SU-DHL-4 cell line (Test Example 1)
Assay type: cell-based, human
Settings: Homo sapiens; SU-DHL-4 cells, 72 hours, Cell Counting Kit-8; concentration showing 90% inhibition of cell viability; read-out: SU-DHL-4 Cell Viability Inhibition Rate IC90
How it was run: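 SU-DHL-4 cells were grown at 37° C. under 5% CO2 in RPMI1640 with 10 vol % heat-inactivated FBS plus penicillin/streptomycin, seeded and precultured for 18 to 25 hours, then exposed to test compound at 0.1 vol % DMSO for 72 hours. Viability was read with Cell Counting Kit-8 by absorbance at 450 nm.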

IC90 [nM] | SMILES
7.84 | CCC(=O)N1c2ccccc2[C@H](Nc2ccc(NC(=O)CCCC(=O)NC34CC(NCc5cc(O)cc(-c6c(C)noc6C)c5)(C3)C4)cc2)C[C@@H]1C [Compound 16i, N^1-(3-((3-(3,5-Dimethylisoxazol-4-yl)-5-hydroxybenzyl)amino)bicyclo[1.1.1]pentan-1-yl)-N5-(4-(((2S,4R)-2-methyl-1-propionyl-1,2,3,4-tetrahydroquinolin-4-yl)amino)phenyl)glutaramide]
0.9 | CCC(=O)N1c2ccccc2[C@H](Nc2ccc(NC(=O)CCCC(=O)Nc3ccc(Oc4ccccc4-c4cn(C)c(=O)cc4OC)cc3)cc2)C[C@@H]1C [Compound 16k, N^1-(4-(2-(4-Methoxy-1-methyl-6-oxo-1,6-dihydropyridin-3-yl)phenoxy)phenyl)-N5-(4-(((2S,4R)-2-methyl-1-propionyl-1,2,3,4-tetrahydroquinolin-4-yl)amino)phenyl)glutaramide]
2.05 | CCC(=O)N1c2ccccc2[C@H](Nc2ccc(NC(=O)CCCC(=O)NC34CCC(NCc5cc(O)cc(-c6c(C)noc6C)c5)(CC3)CC4)cc2)C[C@@H]1C [Compound 17c, N^1-(4-((3-(3,5-Dimethylisoxazol-4-yl)-5-hydroxybenzyl)amino)bicyclo[2.2.2]octan-1-yl)-N5-(4-(((2S,4R)-2-methyl-1-propionyl-1,2,3,4-tetrahydroquinolin-4-yl)amino)phenyl)glutaramide]
0.13 | CCC(=O)N1c2ccccc2[C@H](Nc2ccc(-n3cc(CNC(=O)c4cccc(Oc5ccccc5-c5cn(C)c(=O)cc5OC)c4)nn3)cc2)C[C@@H]1C [Compound 17d, 3-(2-(4-Methoxy-1-methyl-6-oxo-1,6-dihydropyridin-3-yl)phenoxy)-N-((1-(4-(((2S,4R)-2-methyl-1-propionyl-1,2,3,4-tetrahydroquinolin-4-yl)amino)phenyl)-1H-1,2,3-triazol-4-yl)methyl)benzamide]
1.82 | CCC(=O)N1c2ccccc2[C@H](Nc2ccc(CNCc3cn(-c4ccc(N[C@@H]5C[C@H](C)N(C(=O)CC)c6ccccc65)nc4)nn3)cc2)C[C@@H]1C [Compound 17e, 1-((2S,4R)-2-Methyl-4-((4-((((1-(6-(((2S,4R)-2-methyl-1-propionyl-1,2,3,4-tetrahydroquinolin-4-yl)amino)pyridin-3-yl)-1H-1,2,3-triazol-4-yl)methyl)amino)methyl)phenyl)amino)-3,4-dihydroquinolin-1(2H)-yl)propan-1-one]
1.45 | CCC(=O)N1c2ccccc2[C@H](Nc2ccc(-c3cnn(CCNC(=O)C4CCN(Cc5cc(O)cc(-c6c(C)noc6C)c5)CC4)c3)cc2)C[C@@H]1C [Compound 17i, 1-(3-(3,5-Dimethylisoxazol-4-yl)-5-hydroxybenzyl)-N-(2-(4-(4-(((2S,4R)-2-methyl-1-propionyl-1,2,3,4-tetrahydroquinolin-4-yl)amino)phenyl)-1H-pyrazol-1-yl)ethyl)piperidine-4-carboxamide]
29 | CCC(=O)N1c2ccccc2[C@H](Nc2ccc(NC(=O)NCC(=O)NC3CCN(Cc4cc(O)cc(-c5c(C)noc5C)c4)CC3)cc2)C[C@@H]1C [Compound 17j, N-(1-(3-(3,5-Dimethylisoxazol-4-yl)-5-hydroxybenzyl)piperidin-4-yl)-2-(3-(4-(((2S,4R)-2-methyl-1-propionyl-1,2,3,4-tetrahydroquinolin-4-yl)amino)phenyl)ureido)acetamide]
43.7 | CCC(=O)N1c2ccccc2[C@H](Nc2ccc(NC(=O)CNC(=O)NC3CCN(Cc4cc(O)cc(-c5c(C)noc5C)c4)CC3)cc2)C[C@@H]1C [Compound 17k, 2-(3-(1-(3-(3,5-Dimethylisoxazol-4-yl)-5-hydroxybenzyl)piperidin-4-yl)ureido)-N-(4-(((2S,4R)-2-methyl-1-propionyl-1,2,3,4-tetrahydroquinolin-4-yl)amino)phenyl)acetamide]
1.89 | CCC(=O)N1c2ccccc2[C@H](Nc2ccc(-n3cc(CCNC(=O)C4CCN(Cc5cc(O)cc(-c6c(C)noc6C)c5)CC4)nn3)cc2)C[C@@H]1C [Compound 17l, 1-(3-(3,5-Dimethylisoxazol-4-yl)-5-hydroxybenzyl)-N-(2-(1-(4-(((2S,4R)-2-methyl-1-propionyl-1,2,3,4-tetrahydroquinolin-4-yl)amino)phenyl)-1H-1,2,3-triazol-4-yl)ethyl)piperidine-4-carboxamide formate]
74.1 | CCC(=O)N1c2ccccc2[C@H](Nc2ccc(C(=O)NCc3nnc(C4CCN(Cc5cc(O)cc(-c6c(C)noc6C)c5)CC4)o3)cc2)C[C@@H]1C [Compound 17m, N-((5-(1-(3-(3,5-Dimethylisoxazol-4-yl)-5-hydroxybenzyl)piperidin-4-yl)-1,3,4-oxadiazol-2-yl)methyl)-4-(((2S,4R)-2-methyl-1-propionyl-1,2,3,4-tetrahydroquinolin-4-yl)amino)benzamide]
0.35 | CCC(=O)N1c2ccccc2[C@H](Nc2ccc(NC(=O)C3CN(C(=O)c4ccc(C5CCN(c6ccc7nnc(Cl)n7n6)CC5)cc4)C3)cc2)C[C@@H]1C [Compound 17p, 1-(4-(1-(3-Chloro-[1,2,4]triazolo[4,3-b]pyridazin-6-yl)piperidin-4-yl)benzoyl)-N-(4-(((2S,4R)-2-methyl-1-propionyl-1,2,3,4-tetrahydroquinolin-4-yl)amino)phenyl)azetidine-3-carboxamide]

Same assay, conditions: SU-DHL-4 cells, 72 hours, Cell Counting Kit-8; concentration showing 90% inhibition of cell viability; read-out: SU-DHL-4 Cell Viability Inhibition Rate IC90

IC90 [nM] | SMILES
89.8 | CCC(=O)N1c2ccccc2[C@H](Nc2ccc(NC(=O)CCCC(=O)NC3CCC(Oc4ccc(NS(=O)(=O)CC)cc4-c4cn(C)c(=O)cc4OC)CC3)cc2)C[C@@H]1C (stereo partly drawn) [Compound 16l, N^1-((1r,4r)-4-(4-(Ethylsulfonamide)-2-(4-methoxy-1-methyl-6-oxo-1,6-dihydropyridin-3-yl)phenoxy)cyclohexyl)-N5-(4-(((2S,4R)-2-methyl-1-propionyl-1,2,3,4-tetrahydroquinolin-4-yl)amino)phenyl)glutaramide]
0.48 | CCC(=O)N1c2ccccc2[C@H](Nc2ccc(-n3cc(CNC(=O)c4cccc(Oc5ccc(NS(=O)(=O)CC)cc5-c5cn(C)c(=O)cc5OC)c4)nn3)cc2)C[C@@H]1C [Compound 16n, 3-(4-(Ethylsulfonamide)-2-(4-methoxy-1-methyl-6-oxo-1,6-dihydropyridin-3-yl)phenoxy)-N-((1-(4-(((2S,4R)-2-methyl-1-propionyl-1,2,3,4-tetrahydroquinolin-4-yl)amino)phenyl)-1H-1,2,3-triazol-4-yl)methyl)benzamide]
1.74 | CCC(=O)N1c2ccccc2[C@H](Nc2ccc(NC(=O)CCCC(=O)NC3CCC(Cn4c(CC)cc5c4CCCC5=O)CC3)cc2)C[C@@H]1C (stereo partly drawn) [Compound 17b, N^1-((1r,4r)-4-((2-Ethyl-4-oxo-4,5,6,7-tetrahydro-1H-indol-1-yl)methyl)cyclohexyl)-N5-(4-(((2S,4R)-2-methyl-1-propionyl-1,2,3,4-tetrahydroquinolin-4-yl)amino)phenyl)glutaramide]
